In ChEMBL document CHEMBL1124199, “Thienylpyrazoloquinolines: potent agonists and inverse agonists to benzodiazepine receptors” (J Med Chem, 1988):
Activity calls are given as the source filed them. The calls are words filed in the database; no cut-off is given here.

Tests used:
Mus musculus [1] = assay: Agonist activity was evaluated by the inhibition of the pentylenetetrazole (PTZ) induced convulsions after peroral administration; Inactive up to 50 mg/kg; format: functional, organism-based; parameters: dose 50 mg/kg
Mus musculus [2] = assay: Inverse agonist activity of orally administered compound against a subcutaneous dose of 90 mg/kg of PTZ-induced convulsions in mice; inactive up to 50 mg/kg; format: functional, organism-based
Mus musculus [3] = assay: Inverse agonist activity of orally administered compound against a subcutaneous dose of 75 mg/kg of PTZ-induced convulsions in mice; inactive up to 50 mg/kg; format: functional, organism-based
[4] = target: GABA-A receptor; anion channel; assay: Binding affinity against benzodiazepine (BZ) receptor by displacing [3H]diazepam in cerebral cortex of Wistar rats; format: tissue-based, Rattus norvegicus
Mus musculus [5] = assay: Inverse agonist activity of orally administered compound against a subcutaneous dose of 90 mg/kg of PTZ-induced convulsions in mice; format: functional; settings: route oral
Mus musculus [6] = assay: Inverse agonist activity of orally administered compound against a subcutaneous dose of 75 mg/kg of PTZ-induced convulsions in mice; format: functional; settings: route oral
Mus musculus [7] = assay: Inverse agonist activity of orally administered compound against a subcutaneous dose of 90 mg/kg of PTZ-induced convulsions in mice; Inactive; format: functional, organism-based; parameters: dose 90 mg/kg
Mus musculus [8] = assay: Inverse agonist activity of orally administered compound against a subcutaneous dose of 90 mg/kg of PTZ-induced convulsions in mice; Inactive up to 50 mg/kg; format: functional, organism-based
Mus musculus [9] = assay: Agonist activity was evaluated by the inhibition of the pentylenetetrazole (PTZ) induced convulsions after peroral administration; format: functional; settings: po
Mus musculus [10] = assay: Inverse agonist activity of orally administered compound against a subcutaneous dose of 90 mg/kg of PTZ-induced convulsions in mice expressed as percent of mice affected; format: functional; settings: route oral
Mus musculus [11] = assay: Inverse agonist activity of orally administered compound against a subcutaneous dose of 50 mg/kg of PTZ-induced convulsions in mice; format: functional; settings: route oral
Mus musculus [12] = assay: Agonist activity was evaluated by the inhibition of the pentylenetetrazole (PTZ) induced convulsions after peroral administration at 50 mg/kg; format: functional; settings: route oral
Mus musculus [13] = assay: Inverse agonist activity of orally administered compound against a subcutaneous dose of 75 mg/kg of PTZ-induced convulsions in mice; Inactive up to 50 mg/kg; format: functional, organism-based
Mus musculus [14] = assay: Inverse agonist activity of orally administered compound against a subcutaneous dose of 90 mg/kg of PTZ-induced convulsions in mice; inactive; format: functional, organism-based; parameters: dose 90 mg/kg
Mus musculus [15] = assay: Inverse agonist activity of orally administered compound against a subcutaneous dose of 50 mg/kg of PTZ-induced convulsions in mice; expressed as percent of mice affected; format: functional; settings: route oral

Question: `Cc1cc(-n2[nH]c3c(cnc4cc(Cl)ccc43)c2=O)cs1` was tested. Which ED50 (Mus musculus [1]) did it give?
Answer: inactive

Question: What about the ED50 (Mus musculus [2]) of the same compound?
Answer: inactive

Question: And the ED50 (Mus musculus [3])?
Answer: inactive

Question: And the Ki [4]?
Answer: 0.78 nM

Question: What does the source list for `CCc1cc(-n2[nH]c3c(cnc4ccccc43)c2=O)cs1`?
Answer: ED50 (Mus musculus [5]): 10.3 mg/kg; ED50 (Mus musculus [3]): inactive; Ki [4]: 0.41 nM

Question: With `Cc1cc(-n2[nH]c3c(cnc4c(C)cccc43)c2=O)cs1` as the compound, how does the ED50 (Mus musculus [5]) read?
Answer: 5.24 mg/kg

Question: What about the ED50 (Mus musculus [6]) of the same compound?
Answer: 12.9 mg/kg

Question: And the Ki [4]?
Answer: 0.38 nM

Question: What does the source list for `Cc1ccc2c(c1)ncc1c(=O)n(-c3ccc(C)s3)[nH]c12`?
Answer: ED50 (Mus musculus [7]): inactive; ED50 (Mus musculus [1]): inactive; Ki [4]: 2.34 nM

Question: With `Cc1ccc2c(c1)ncc1c(=O)n(-c3csc(C)c3)[nH]c12` as the compound, how does the ED50 (Mus musculus [7]) read?
Answer: inactive

Question: What about the ED50 (Mus musculus [1]) of the same compound?
Answer: inactive

Question: What about the Ki [4] of the same compound?
Answer: 0.96 nM

Question: `Cc1ccc(-n2[nH]c3c(cnc4c(C)cccc43)c2=O)s1` was tested. Which ED50 (Mus musculus [8]) did it give?
Answer: inactive

Question: And the ED50 (Mus musculus [9])?
Answer: 25 mg/kg

Question: And the Ki [4]?
Answer: 0.83 nM

Question: With `Cc1cc(-n2[nH]c3c(cnc4c(Cl)cccc43)c2=O)cs1` as the compound, how does the ED50 (Mus musculus [5]) read?
Answer: 7.7 mg/kg

Question: And the ED50 (Mus musculus [6])?
Answer: 13.5 mg/kg

Question: And the Ki [4]?
Answer: 0.63 nM

Question: For `Cc1cc(-n2[nH]c3c(cnc4ccccc43)c2=O)c(Br)s1`, which ED50 (Mus musculus [1]) is on record?
Answer: inactive

Question: What about the ED50 (Mus musculus [2]) of the same compound?
Answer: inactive

Question: What about the ED50 (Mus musculus [3]) of the same compound?
Answer: inactive

Question: What about the Ki [4] of the same compound?
Answer: 27.2 nM

Question: Which results are given for `O=c1c2cnc3ccccc3c2[nH]n1-c1ccc(Cl)s1`?
Answer: ED50 (Mus musculus [1]): inactive; Affected animals (Mus musculus [10]): 25%; Ki [4]: 2.48 nM

Question: `Cc1ccc(-n2nc3c4ccccc4n(C)cc-3c2=O)s1` was tested. Which ED50 (Mus musculus [9]) did it give?
Answer: 13.4 mg/kg

Question: What about the Ki [4] of the same compound?
Answer: 1020 nM

Question: How did the ED50 (Mus musculus [9]) turn out when `O=C1C2C=Nc3ccccc3C2=NN1c1ccc(Cl)cc1` (centres undefined) [CGS-9896] was run?
Answer: 1.17 mg/kg

Question: And the Ki [4]?
Answer: 0.83 nM

Question: With `O=c1c2cnc3ccccc3c2[nH]n1-c1cccs1` as the compound, how does the ED50 (Mus musculus [1]) read?
Answer: inactive

Question: What about the Animals affected (Mus musculus [11]) of the same compound?
Answer: 50%

Question: What about the ED50 (Mus musculus [5]) of the same compound?
Answer: 9.54 mg/kg

Question: And the Ki [4]?
Answer: 0.41 nM

Question: What does the source list for `Cc1cc(-n2[nH]c3c(cnc4c(F)cccc43)c2=O)cs1`?
Answer: ED50 (Mus musculus [5]): 1.32 mg/kg; ED50 (Mus musculus [6]): 2.58 mg/kg; Ki [4]: 0.37 nM

Question: Which Animals affected (Mus musculus [12]) does the source give for `Cc1ccc(-n2[nH]c3c(cnc4c(Cl)cccc43)c2=O)s1` here?
Answer: 25%

Question: What about the ED50 (Mus musculus [8]) of the same compound?
Answer: inactive

Question: And the Ki [4]?
Answer: 0.75 nM

Question: What does the source list for `O=c1c2cnc3ccccc3c2[nH]n1-c1csc(Cl)c1`?
Answer: ED50 (Mus musculus [5]): 11.5 mg/kg; ED50 (Mus musculus [6]): 23.2 mg/kg; Ki [4]: 0.73 nM

Question: Which ED50 (Mus musculus [13]) does the source give for `O=C1C2C=Nc3ccccc3C2=NN1c1ccccc1` (centres undefined) here?
Answer: inactive

Question: Which ED50 (Mus musculus [7]) does the source give for `Cc1cc(-n2[nH]c3c(cnc4ccccc43)c2=O)c(Cl)s1` here?
Answer: inactive

Question: And the ED50 (Mus musculus [1])?
Answer: inactive

Question: And the ED50 (Mus musculus [3])?
Answer: inactive

Question: What about the Ki [4] of the same compound?
Answer: 4.69 nM

Question: What does the source list for `Cc1cc(C(=O)O)c(-n2[nH]c3c(cnc4ccccc43)c2=O)s1`?
Answer: ED50 (Mus musculus [8]): inactive; ED50 (Mus musculus [1]): inactive; Ki [4]: 21.6 nM

Question: `CCc1ccc(-n2[nH]c3c(cnc4ccccc43)c2=O)s1` was tested. Which ED50 (Mus musculus [9]) did it give?
Answer: 14.3 mg/kg

Question: And the Ki [4]?
Answer: 1.02 nM

Question: With `CCOC(=O)c1cc(C)sc1-n1[nH]c2c(cnc3ccccc32)c1=O` as the compound, how does the ED50 (Mus musculus [8]) read?
Answer: inactive

Question: And the ED50 (Mus musculus [1])?
Answer: inactive

Question: And the Ki [4]?
Answer: 9.84 nM

Question: For `Cc1cscc1-n1[nH]c2c(cnc3ccccc32)c1=O`, which ED50 (Mus musculus [5]) is on record?
Answer: 22.3 mg/kg

Question: What about the ED50 (Mus musculus [6]) of the same compound?
Answer: 84.4 mg/kg

Question: And the Ki [4]?
Answer: 6.86 nM

Question: `COC(=O)c1sccc1-n1[nH]c2c(cnc3ccccc32)c1=O` was tested. Which ED50 (Mus musculus [1]) did it give?
Answer: inactive

Question: What about the ED50 (Mus musculus [14]) of the same compound?
Answer: inactive

Question: And the ED50 (Mus musculus [3])?
Answer: inactive

Question: What about the Ki [4] of the same compound?
Answer: 142 nM

Question: Which ED50 (Mus musculus [5]) does the source give for `CCn1cc2c(=O)n(-c3csc(C)c3)nc-2c2ccccc21` here?
Answer: 5.24 mg/kg

Question: What about the ED50 (Mus musculus [6]) of the same compound?
Answer: 13.3 mg/kg

Question: And the Ki [4]?
Answer: 436 nM

Question: Which results are given for `Cc1csc(-n2[nH]c3c(cnc4ccccc43)c2=O)c1`?
Answer: ED50 (Mus musculus [1]): inactive; ED50 (Mus musculus [3]): inactive; Affected animals (Mus musculus [10]): 62.5%; Ki [4]: 0.48 nM

Question: With `Cc1cc(-n2[nH]c3c(cnc4ccccc43)c2=O)cs1` as the compound, how does the ED50 (Mus musculus [5]) read?
Answer: 0.92 mg/kg

Question: With `Cc1cc(-n2nc3c4ccccc4n(C)cc-3c2=O)cs1` as the compound, how does the ED50 (Mus musculus [5]) read?
Answer: 1.48 mg/kg

Question: What about the ED50 (Mus musculus [6]) of the same compound?
Answer: 2.94 mg/kg

Question: What about the Ki [4] of the same compound?
Answer: 215 nM

Question: With `Cc1cc(-n2[nH]c3c(cnc4cc(F)ccc43)c2=O)cs1` as the compound, how does the ED50 (Mus musculus [5]) read?
Answer: 6.15 mg/kg

Question: What about the Affected animals (Mus musculus [15]) of the same compound?
Answer: 37.7%

Question: And the Ki [4]?
Answer: 0.64 nM

Question: Which ED50 (Mus musculus [9]) does the source give for `Cc1ccc(-n2[nH]c3c(cnc4c(F)cccc43)c2=O)s1` here?
Answer: 30.4 mg/kg

Question: And the Ki [4]?
Answer: 0.92 nM

Question: Which ED50 (Mus musculus [9]) does the source give for `Cc1ccc(-n2[nH]c3c(cnc4cc(F)ccc43)c2=O)s1` here?
Answer: 16.3 mg/kg

Question: And the Ki [4]?
Answer: 0.65 nM

Question: How did the ED50 (Mus musculus [9]) turn out when `Cc1cc(-n2[nH]c3c(cnc4ccccc43)c2=O)sc1C` was run?
Answer: 30.6 mg/kg

Question: What about the Ki [4] of the same compound?
Answer: 0.73 nM

Question: For `O=C(O)c1sccc1-n1[nH]c2c(cnc3ccccc32)c1=O`, which ED50 (Mus musculus [7]) is on record?
Answer: inactive

Question: What about the ED50 (Mus musculus [1]) of the same compound?
Answer: inactive

Question: And the ED50 (Mus musculus [3])?
Answer: inactive

Question: What about the Ki [4] of the same compound?
Answer: 17.8 nM

Question: What does the source list for `CCCCc1ccc(-n2[nH]c3c(cnc4ccccc43)c2=O)s1`?
Answer: ED50 (Mus musculus [9]): 12.5 mg/kg; Ki [4]: 1.48 nM

Question: With `O=c1c2cnc3ccccc3c2[nH]n1-c1ccsc1` as the compound, how does the ED50 (Mus musculus [5]) read?
Answer: 2.49 mg/kg

Question: What about the ED50 (Mus musculus [6]) of the same compound?
Answer: 7.62 mg/kg

Question: And the Ki [4]?
Answer: 0.73 nM

Question: With `CN1C(=O)CN=C(c2ccccc2)c2cc(Cl)ccc21` [DIAZEPAM] as the compound, how does the ED50 (Mus musculus [9]) read?
Answer: 0.67 mg/kg

Question: How did the ED50 (Mus musculus [8]) turn out when `Cc1ccc(-n2[nH]c3c(cnc4cc(Cl)ccc43)c2=O)s1` was run?
Answer: inactive

Question: What about the ED50 (Mus musculus [1]) of the same compound?
Answer: inactive

Question: What about the Ki [4] of the same compound?
Answer: 1.05 nM
